Molecules are shown by their SMILES.

In this assay the target is mGluR5 (Homo sapiens, UniProt P41594). The assay can be described thus: inhibition of the glutamate induced elevation of intracellular Ca2+ concentration. To be noted: read-out: mGluR5 Activity inh. at 10 μM [%].
mGluR5, sequence (P41594 21-1180 isoform P41594-2 limits assumed): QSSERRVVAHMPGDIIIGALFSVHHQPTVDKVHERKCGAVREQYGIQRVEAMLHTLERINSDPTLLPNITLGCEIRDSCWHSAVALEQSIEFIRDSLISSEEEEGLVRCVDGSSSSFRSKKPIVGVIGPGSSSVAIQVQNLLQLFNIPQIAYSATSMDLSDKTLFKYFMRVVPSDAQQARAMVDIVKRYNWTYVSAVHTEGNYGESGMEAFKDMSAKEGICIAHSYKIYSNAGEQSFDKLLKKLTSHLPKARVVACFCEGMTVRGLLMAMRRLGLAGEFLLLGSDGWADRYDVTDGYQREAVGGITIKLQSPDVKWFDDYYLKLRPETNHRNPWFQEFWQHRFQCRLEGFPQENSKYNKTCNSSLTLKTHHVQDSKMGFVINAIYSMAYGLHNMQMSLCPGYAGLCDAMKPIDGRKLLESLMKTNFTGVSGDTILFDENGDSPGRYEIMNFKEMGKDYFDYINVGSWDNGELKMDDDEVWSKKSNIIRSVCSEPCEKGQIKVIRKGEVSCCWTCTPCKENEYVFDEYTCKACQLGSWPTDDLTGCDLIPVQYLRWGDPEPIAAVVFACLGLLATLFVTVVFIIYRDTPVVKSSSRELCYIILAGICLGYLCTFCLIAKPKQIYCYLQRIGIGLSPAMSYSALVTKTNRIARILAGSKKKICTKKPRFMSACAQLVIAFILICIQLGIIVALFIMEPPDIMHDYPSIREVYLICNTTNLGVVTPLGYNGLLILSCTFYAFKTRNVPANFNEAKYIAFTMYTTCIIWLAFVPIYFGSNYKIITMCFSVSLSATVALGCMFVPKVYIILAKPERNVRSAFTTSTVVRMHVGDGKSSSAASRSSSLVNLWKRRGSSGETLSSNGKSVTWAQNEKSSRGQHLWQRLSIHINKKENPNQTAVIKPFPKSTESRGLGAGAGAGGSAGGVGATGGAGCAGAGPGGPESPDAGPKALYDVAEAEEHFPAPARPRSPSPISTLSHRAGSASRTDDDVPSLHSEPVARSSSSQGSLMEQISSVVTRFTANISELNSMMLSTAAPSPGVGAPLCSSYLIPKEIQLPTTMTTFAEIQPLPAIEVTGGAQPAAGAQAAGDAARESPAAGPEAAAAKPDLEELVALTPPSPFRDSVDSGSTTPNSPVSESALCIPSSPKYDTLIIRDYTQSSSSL

Text: This can be determined in vitro for example at recombinant human metabotropic glutamate receptors, especially PLC-coupled subtypes thereof such as mGluR5, using different procedures like, for example, measurement of the inhibition of the agonist induced elevation of intracellular Ca^2+ concentration in accordance with L. P. Daggett et al., Neuropharm.

Consider `CCCC1CCCCCN1C(=O)c1cnc(Nc2ccc(C)nc2)c(Cl)c1` (stereo not drawn) [Compound 4.76, [5-Chloro-6-(6-methyl-pyridin-3-ylamino)-pyridin-3-yl]-(2-propyl-azepan-1-yl)-methanone], for which the inhibition at 10 µM was determined as 92%.

Consider `CCCC1COCCN1C(=O)c1cnc(Nc2ccc(C)nc2)c(Cl)c1` (stereo not drawn) [Compound 4.77, [5-Chloro-6-(6-methyl-pyridin-3-ylamino)-pyridin-3-yl]-(3-propyl-morpholin-4-yl)-methanone], for which the inhibition at 10 µM is 100%.

Consider `O=C(c1cnc(Nc2ccc(Cl)cc2)c(Cl)c1)N1CCCCCC1` [Compound 5.1, Azepan-1-yl-[5-chloro-6-(4-chloro-phenylamino)-pyridin-3-yl]-methanone], for which the inhibition at 10 µM was 98%.

In the case of `O=C(c1cnc(Nc2ccc(Cl)cc2)nc1)N1CCCCCC1` [Compound 5.3, Azepan-1-yl-[2-(4-chloro-phenylamino)-pyrimidin-5-yl]-methanone], the inhibition at 10 µM is 87%.

Turning to `O=C(c1cnc(Nc2ccc(Cl)cc2)nc1)N1CCCCC1` [Compound 5.4, [2-(4-Chloro-phenylamino)-pyrimidin-5-yl]-piperidin-1-yl-methanone], the inhibition at 10 µM stood at 83%.

Consider `COc1cc(C(=O)N2CCCCCC2)cnc1Nc1ccc(Cl)cc1` [Compound 6.1, Azepan-1-yl-[6-(4-chloro-phenylamino)-5-methoxy-pyridin-3-yl]-methanone], for which the inhibition at 10 µM was 97%.

In the case of `COc1cc(C(=O)N2CCCCC2)cnc1Nc1ccc(Cl)cc1` [Compound 6.3, [6-(4-Chloro-phenylamino)-5-methoxy-pyridin-3-yl]-piperidin-1-yl-methanone], the inhibition at 10 µM amounted to 95%.

With `COc1cc(C(=O)N2CCCCC2)cnc1Nc1ccc(C)nc1` [Compound 6.4, [5-Methoxy-6-(6-methyl-pyridin-3-ylamino)-pyridin-3-yl]-piperidin-1-yl-methanone], the inhibition at 10 µM amounted to 98%.

Turning to `CCOc1cc(C(=O)N2CCCCCC2)cnc1Nc1ccc(Cl)cc1` [Compound 6.5, Azepan-1-yl-[6-(4-chloro-phenylamino)-5-ethoxy-pyridin-3-yl]-methanone], the inhibition at 10 µM came out at 33%.

Turning to `CCOc1cc(C(=O)N2CCCCCC2)cnc1Nc1ccc(C)nc1` [Compound 6.6, Azepan-1-yl-[5-ethoxy-6-(6-methyl-pyridin-3-ylamino)-pyridin-3-yl]-methanone], the inhibition at 10 µM was 54%.

For `CCOc1cc(C(=O)N2CCCCC2)cnc1Nc1ccc(C)nc1` [Compound 6.7, [5-Ethoxy-6-(6-methyl-pyridin-3-ylamino)-pyridin-3-yl]-piperidin-1-yl-methanone], the inhibition at 10 µM worked out at 35%.

`CC1CCCN(C(=O)c2cnc(Nc3ccc(Cl)nc3)c(Cl)c2)C1` (stereo not drawn) [Compound 7.1, [5-Chloro-6-(6-chloro-pyridin-3-ylamino)-pyridin-3-yl]-(3-methyl-piperidin-1-yl)-methanone]: the inhibition at 10 µM was found to be 98%.

As for `O=C(c1ccc(Nc2ccc(Cl)cc2)nn1)N1CCCCC1` [Compound 8.1, [6-(4-Chloro-phenylamino)-pyridazin-3-yl]-piperidin-1-yl-methanone], the inhibition at 10 µM worked out at 91%.

As for `CC1(C)CCCN(C(=O)c2ccc(Nc3ccc(Cl)cc3)nn2)C1` [Compound 8.3, [6-(4-Chloro-phenylamino)-pyridazin-3-yl]-(3,3-dimethyl-piperidin-1-yl)-methanone], the inhibition at 10 µM is 82%.

For the compound `O=C(c1ccc(Nc2ccc(Cl)cc2)nn1)N1CCc2ccccc2C1` [Compound 8.4, [6-(4-Chloro-phenylamino)-pyridazin-3-yl]-(3,4-dihydro-1H-isoquinolin-2-yl)-methanone], the inhibition at 10 µM was 89%.

With `CC1CCN(C(=O)c2ccc(Nc3ccc(Cl)cc3)nn2)CC1` [Compound 8.5, [6-(4-Chloro-phenylamino)-pyridazin-3-yl]-(4-methyl-piperidin-1-yl)-methanone], the inhibition at 10 µM was 86%.

`Cc1ccc(Nc2ncc(C(=O)N3CCCCC3)cc2C)cn1` [Compound 9.1, [5-Methyl-6-(6-methyl-pyridin-3-ylamino)-pyridin-3-yl]-piperidin-1-yl-methanone]: the inhibition at 10 µM was 97%.

On to `Cc1ccc(Nc2ncc(C(=O)N3CCCCC3)cc2F)cn1` [Compound 9.2, [5-Fluoro-6-(6-methyl-pyridin-3-ylamino)-pyridin-3-yl]-piperidin-1-yl-methanone], for which the inhibition at 10 µM came out at 99%.

Source of the values: patent US20090005363A1, “Organic Compounds” (priority 2005, published 2009).
